Reference: patent US11851391B2, “Antifungal compounds and methods of forming the same” (University of Kentucky Research Foundation, priority 2018, dated 2023)
In brackets after ≈: the same amount, converted by molar mass. Read-outs that look alike come from different tables or passages of the source.

Assays:
[1] = system: Candida albicans ATCC 10231(R) (strain A); assay: MIC determination, in vitro antifungal assay (CLSI M27-A3); type: cell-based; conditions: MIC-0 (no visible growth), 48 h at 35° C.
Method: (§1) The activity of N,N′-diaryl-bishydrazones 7-22 was tested against a panel of seven strains of C. albicans: ATCC 10231(R) (A), ATCC 64124(R) (B), ATCC MYA-2876(S) (C), ATCC 90819(R) (D), ATCC MYA-2310(S) (E), ATCC MYA-1237(R) (F), and ATCC MYA-1003(R) (G). The activity of these bishydrazones 7-22 was also explored against a panel of three non-albicans Candida strains: C. glabrata ATCC 2001 (H), C. krusei ATCC 6258 (I), and C. parapsilosis ATCC 22019 (J). Finally, the activity of these bishydrazones 7-22 was explored against three Aspergillus strains: A. flavus ATCC MYA-3631 (K), A. nidulans ATCC 38163 (L), and A. terreus ATCC MYA-3633 (M).
(§2) Candida albicans ATCC 10231 (A), C. albicans ATCC 64124 (B), and C. albicans ATCC MYA-2876 (C) were kindly provided by Dr. Jon Y. Takemoto (Utah State University, Logan, UT, USA). C. albicans ATCC 90819 (D), C. albicans ATCC MYA-2310 (E), C. albicans ATCC MYA-1237 (F), C. albicans ATCC MYA-1003 (G), Candida glabrata ATCC 2001 (H), Candida krusei ATCC 6258 (I), Candida parapsilosis ATCC 22019 (J), Aspergillus flavus ATCC MYA-3631 (K), and Aspergillus terreus ATCC MYA-3633 (M) were obtained from the American Type Culture Collection (ATCC; Manassas, VA, USA). Aspergillus nidulans ATCC 38163 (L) was received from Dr. Jon S. Thorson (University of Kentucky, Lexington, KY, USA). Filamentous fungi and yeasts were cultivated at 35° C. in RPMI 1640 medium (with 1-glutamine, without sodium biocarbonate, Sigma-Aldrich, St. Louis, MO) buffered to a pH of 7.0 with 0.165 M morpholinepropanesulfonic acid (MOPS) buffer (Sigma-Aldrich).
(§3) The MIC values of compounds 7a-24c against yeast cells (strains A-J) were determined in 96-well plates as described in the CLSI document M27-A3 with minor modifications. A single colony of freshly prepared yeast cells was used to inoculate 5 mL of yeast extract peptone dextrose (YPD) broth prior to incubation overnight with shaking at 200 rpm at 35° C. From the actively growing yeast culture, 100 μL were then transferred to 900 μL of sterile ddH2O and re-adjusted to achieve OD600 of 0.12 (˜1×10^6 CFU/mL). The cell suspension was further diluted to achieve 2-4×10^3 CFU/mL in RPMI 1640 medium. […] The final concentration of DMSO was ensured to be <1.25% in all experiments. The MIC values for compounds 7a-24c and CAS were defined as the minimum drug concentration that yielded complete inhibition (also known as MIC-0).

[2] = system: Candida parapsilosis ATCC 22019 (strain J); assay: as above; type: cell-based; conditions: Lodderomyces parapsilosis, ATCC22019, 48 h, strain J; MIC-0; 48 h at 35° C.; read-out: MIC
Method: as §1, §2, §3

[3] = system: C. albicans ATCC 64124(R) (strain B); assay: as above; type: cell-based, Candida albicans; conditions: strain B, MIC-0, 48 h at 35° C.
Method: as §1, §2, §3

[4] = system: C. albicans ATCC 90819(R) (strain D); assay: as above; type: cell-based, Candida albicans; conditions: Candida albicans, ATCC90819, 48 h, MIC-0, 48 h at 35° C., read-out: MIC
Method: as §1, §2, §3

[5] = system: C. albicans ATCC MYA-1237(R) (strain F); assay: as above; type: cell-based, Candida albicans; conditions: MIC-0, 48 h at 35° C.
Method: as §1, §2, §3

[6] = system: C. albicans ATCC MYA-2310(S) (strain E); assay: as above; type: cell-based, Candida albicans; conditions: MIC-0, 48 h at 35° C.
Method: as §1, §2, §3

[7] = system: C. albicans ATCC MYA-1003(R) (strain G); assay: as above; type: cell-based, Candida albicans; conditions: MIC-0, 48 h at 35° C.
Method: as §1, §2
(§4) A single colony of freshly prepared yeast cells was used to inoculate 5 mL of yeast extract peptone dextrose (YPD) broth prior to incubation overnight with shaking at 200 rpm at 35° C. From the actively growing yeast culture, 100 μL were then transferred to 900 μL of sterile ddH2O and re-adjusted to achieve OD600 of 0.12 (˜1×10^6 CFU/mL). The cell suspension was further diluted to achieve 2-4×10^3 CFU/mL in RPMI 1640 medium. […] The final concentration of DMSO was ensured to be <1.25% in all experiments.

[8] = system: C. albicans ATCC MYA-2876(S) (strain C); assay: as above; type: cell-based, Candida albicans; conditions: MIC-0, 48 h at 35° C.
Method: as §1, §2, §4

[9] = system: Candida glabrata ATCC 2001 (strain H); assay: as above; type: cell-based; conditions: MIC-0, 48 h at 35° C.
Method: as §1, §2, §4

[10] = system: Candida krusei ATCC 6258 (strain I); assay: as above; type: cell-based; conditions: MIC-0, 48 h at 35° C.
Method: as §1, §2, §4

[11] = system: Aspergillus flavus ATCC MYA-3631 (strain K); assay: MIC determination against filamentous fungi (CLSI M38-A2); type: cell-based; conditions: Aspergillus flavus, 48 h, MIC-0, 48 h at 35° C., read-out: MIC
Method: as §1, §2
(§5) Similarly, the MIC values of compounds 7a-24c, as well as that of the two control drugs against filamentous fungi (strains K-M) were determined as previously described in CLSI document M38-A2. Spores were harvested from sporulating cultures growing on potato dextrose agar (PDA) by filtration through sterile glass wool and enumerated by using a hemocytometer to obtain the desired inoculum size. […] Spore suspensions were added to the wells to afford a final concentration of 5×10^5 CFU/mL. The plates were incubated at 35° C. for 48 h. The MIC values of compounds 7a-24c and CAS against filamentous fungi were based on the complete inhibition of growth when compared to the growth control (MIC-0). […] Each test was performed in triplicate.

[12] = system: Aspergillus nidulans ATCC 38163 (strain L); assay: as above; type: cell-based; conditions: Aspergillus nidulans, ATCC38163, 48 h, MIC-0, 48 h at 35° C., read-out: MIC
Method: as §1, §2, §5

[13] = system: Aspergillus terreus ATCC MYA-3633 (strain M); assay: as above; type: cell-based; conditions: Aspergillus terreus, 48 h, MIC-0, 48 h at 35° C., read-out: MIC
Method: as §1, §2, §5

[14] = Candida albicans, ATCC10231, 48 h, read-out: MIC
[15] = Candida albicans, ATCC64124, 48 h, read-out: MIC
[16] = Candida albicans, 48 h, read-out: MIC
[17] = Nakaseomyces glabratus, ATCC2001, 48 h, read-out: MIC
[18] = Pichia kudriavzevii, ATCC6258, 48 h, read-out: MIC

Row | MIC [1, 14] [µg/mL] | MIC [2] [µg/mL] | MIC [3, 15] [µg/mL] | MIC [4] [µg/mL] | MIC [5, 16] [µg/mL] | MIC [6, 16] [µg/mL] | MIC [7, 16] [µg/mL] | MIC [8, 16] [µg/mL] | MIC [9, 17] [µg/mL] | MIC [10, 18] [µg/mL] | MIC [11] [µg/mL] | MIC [12] [µg/mL] | MIC [13] [µg/mL] | Structure (SMILES) | further results
1 | 0.975 (≈ 0.892 µM) | 1.95 (≈ 1.78 µM) | 0.24 (≈ 0.22 µM) | 0.12 (≈ 0.11 µM) | 0.24 (≈ 0.22 µM) | 0.12 (≈ 0.11 µM) | 0.48 (≈ 0.439 µM) | 0.06 (≈ 0.0549 µM) | 0.06 (≈ 0.0549 µM) | 0.48 (≈ 0.439 µM) | > 31.3 | > 31.3 | > 31.3 | CC[C@H](C)C[C@H](C)CCCCCCCCC(=O)N[C@H]1C[C@@H](O)[C@@H](NCCN)NC(=O)[C@@H]2[C@@H](O)CCN2C(=O)[C@H]([C@H](O)CCN)NC(=O)[C@H]([C@H](O)[C@@H](O)c2ccc(O)cc2)NC(=O)[C@@H]2C[C@@H](O)CN2C(=O)[C@H]([C@@H](C)O)NC1=O [CAS, caspofungin, reference compound] | –
2 | 3.9 (≈ 9.14 µM) | > 31.3 | > 31.3 | 31.3 (≈ 73.4 µM) | > 31.3 | > 31.3 | 15.6 (≈ 36.6 µM) | 15.6 (≈ 36.6 µM) | > 31.3 | 3.9 (≈ 9.14 µM) | > 31.3 | 31.3 (≈ 73.4 µM) | > 31.3 | Fc1ccccc1N/N=C/c1ccc(-c2ccc(/C=N/Nc3ccccc3F)cc2)cc1 [Compound 10b] | –
3 | 7.8 to 15.6 (≈ 16.3 to 32.6 µM) | > 31.3 | 7.8 to 15.6 (≈ 16.3 to 32.6 µM) | 31.3 (≈ 65.4 µM) | 7.8 to 15.6 (≈ 16.3 to 32.6 µM) | 7.8 to 15.6 (≈ 16.3 to 32.6 µM) | 7.8 to 15.6 (≈ 16.3 to 32.6 µM) | 7.8 to 15.6 (≈ 16.3 to 32.6 µM) | 7.8 to 15.6 (≈ 16.3 to 32.6 µM) | 7.8 to 15.6 (≈ 16.3 to 32.6 µM) | > 31.3 | > 31.3 | > 31.3 | COc1ccc(N/N=C(\C)c2ccc(-c3ccc(/C(C)=N/Nc4ccc(OC)cc4)cc3)cc2)cc1 [Compound 15c] | MIC [1]: 15.6 µg/mL (≈ 32.6 µM); MIC [3]: 15.6 µg/mL (≈ 32.6 µM); MIC [5]: 7.8 µg/mL (≈ 16.3 µM); MIC [6]: 15.6 µg/mL (≈ 32.6 µM); MIC [7]: 7.8 µg/mL (≈ 16.3 µM); MIC [8]: 15.6 µg/mL (≈ 32.6 µM); MIC [9]: 7.8 µg/mL (≈ 16.3 µM); MIC [10]: 15.6 µg/mL (≈ 32.6 µM)
4 | > 31.3 | > 31.3 | > 31.3 | > 31.3 | > 31.3 | > 31.3 | > 31.3 | > 31.3 | > 31.3 | > 31.3 | > 31.3 | > 31.3 | > 31.3 | Fc1ccc(F)c(N/N=C/c2ccc(-c3cccc(/C=N/Nc4cc(F)ccc4F)c3)cc2)c1 [Compound 21a] | –
5 | 31.3 (≈ 67.7 µM) | > 31.3 | > 31.3 | > 31.3 | > 31.3 | > 31.3 | > 31.3 | > 31.3 | > 31.3 | > 31.3 | > 31.3 | > 31.3 | > 31.3 | Fc1ccc(F)c(N/N=C/c2ccc(-c3ccc(/C=N/Nc4cc(F)ccc4F)cc3)cc2)c1 [Compound 21b] | –
